{"source": "patent US9974776B2", "about": "“Estrogen receptor beta agonists for use in treating mesothelioma” (Karo Pharma AB, priority 2013, dated 2018)", "key": {"[1]": {"system": "MSTO-211H/ERβ cells", "assay": "Proliferation assay in MSTO-211H cells transfected with ERβ expression vector", "type": "cell-based", "settings": "10 nM, 24 and 48 hours; transient transfection with ERβ expression vector", "text": "The epithelioid MPM derived REN cell line was isolated, characterized and provided by Dr. Albelda S. M. (University of Pennsylvania, Philadelphia; PA, USA). The biphasic MSTO-211H and the mesothelial MET5A cell lines were obtained from the Istituto Scientifico Tumori (IST) Cell-bank, Genoa, Italy; the MMB and MMP cell lines have been derived from pleural effusions of patients with MPM and stabilized in culture (Cacciotti P, et al., Proc Natl Acad Sci USA 2001; 98:12032-7; Pinton G., et al, Cancer Res 2009; 69:4598-604); the H2596 cell line was produced by Dr. H. I. Pass from surgical specimens derived from patients with resected MPM (Pass H. I., et al., Ann Thorac Surg 1995; 59(4):835-44). Cells were grown in RPMI medium supplemented with 10% FBS, […] streptomycin and 10 μg/ml penicillin at 37° C. in a humidified environment containing 5% CO2. Mycoplasma infection was excluded by the use of Mycoplasma Plus™ PCR Primer Set kit from Stratagene (La Jolla, Calif., USA). […]\nCells were seeded at a density of 10×10^4 cells/well in 6-well plates in RPMI medium supplemented with 10% FBS, 100 μg/ml streptomycin and 10 μg/ml penicillin and incubated over-night at 37° C. in a humidified environment containing 5% CO2 to allow adherence. […] The number of cells considered viable (unstained cells) was counted in a Bürker haemocytometer within 5 minutes after staining."}, "[2]": {"system": "AKT phosphorylation", "assay": "Western blot of AKT phosphorylation in MMP cells", "type": "cell-based, human", "settings": "10 nM 2 hours pre-treatment, ± 50 μM cisplatin", "protocol": "(§1) Cells were extracted with 1% NP-40 lysis buffer (1% NP-40, 150 mM NaCl, 50 mM Tris-HCl pH 8.5 mM EDTA, 10 mM NaF, 10 mM Na4P2O7, 0.4 mM Na3VO4) with freshly added protease inhibitors (10 μg/ml leupeptin, 4 μg/ml pepstatin and 0.1 Unit/ml aprotinin). For protein extraction from tissues, ˜100 mg of each sample were homogenized, using a Potter-Elvehjem homogenizer device, in 1% NP-40 lysis buffer. Lysates were centrifuged at 13.000×g for 10 minutes at 4° C. and the supernatants were collected and assayed for protein concentration with the Bio-Rad protein assay method.\n(§2) Proteins were separated by SDS-PAGE under reducing conditions. Following SDS-PAGE, proteins were transferred to nitrocellulose, reacted with specific antibodies and then detected with peroxidase-conjugate secondary antibodies and chemioluminescent ECL reagent. Densitometric analysis was performed using the GS 250 Molecular Image (Bio-Rad).\nLevels of PARP1, cleaved PARP1, AKT and phosphorylated AKT in the MMP cell cultures at 24 hours were also determined by Western blot analysis."}, "[3]": {"system": "AKT phosphorylation", "assay": "Western blot of AKT phosphorylation in REN cells", "type": "cell-based, human", "settings": "10 nM 2 hours pre-treatment, ± cisplatin", "protocol": "as §1, §2\nLevels of PARP1, cleaved PARP1, AKT and phosphorylated AKT in REN cells treated for 24 hours with cisplatin (25, 50 and 100 μM) or pre-treated 2 hours with Compound (I) (10 nM) followed by wash-off and continued growth in normal medium±cisplatin (25, 50 and 100 μM), for an additional 24 hours were also determined by Western blot analysis and relative densitometry. […] PARP1 cleavage was analysed as it is an indicator of apoptotic cell death. […]"}, "[4]": {"system": "H2596 cells", "assay": "Proliferation assay in H2596 cells", "type": "cell-based", "settings": "10 nM single agent, 24 and 48 hours; very low ERβ", "protocol": "(§3) Cells were seeded at a density of 10×10^4 cells/well in 6-well plates in RPMI medium supplemented with 10% FBS, 100 μg/ml streptomycin and 10 μg/ml penicillin and incubated over-night at 37° C. in a humidified environment containing 5% CO2 to allow adherence. Following treatment cells were trypsinized and stained with Trypan blue. The number of cells considered viable (unstained cells) was counted in a Bürker haemocytometer within 5 minutes after staining."}, "[5]": {"assay": "Treatment toxicity by mice body weights", "type": "in vivo", "settings": "10 mg/kg/day s.c. during drug administration", "protocol": "Animals. CD1 nude mice (males, 6 weeks old; Charles River, Calco, Italy) received intraperitoneal (i.p.) injections of 2×10^6 luciferase transduced REN cells in 0.5 mL of RPMI medium. After anesthetization and i.p. injections of 0.3 mL of 15 mg/mL D-luciferin, tumor dimension and localization of luminescent cells was monitored using the In Vivo Imaging System (IVIS) series (Xenogen Corporation, Hopkinton, Mass., USA). Regions of interest were identified around the tumor sites and were quantified as total photon counts using Living Image software (Xenogen Corporation). The values of tumor sizes were obtained, subtracting luminescence signals of each weekly measurement by the average of all animals within a treatment group on the 15th day after inoculation (day when treatment started). To evaluate treatment toxicity, mice were weighed at the start and end of treatments. Mice were killed and necropsied after 20 days of treatment. In vivo experiments were approved by Istituto Scientifico Tumori (Genoa, Italy) ethical committee and conform to the relevant regulatory standards. Mice were maintained and handled under aseptic conditions, and were allowed access to food and water ad libitum."}, "[6]": {"system": "REN cells", "assay": "Proliferation assay (Trypan blue viable cell count; wash-off and add-on experiments) in REN cells", "type": "cell-based, human", "protocol": "as §3\nControl cultures were maintained in normal growth medium without added drug. The number of viable cells was determined as described for the proliferation assay.\nIn the add-on experiments the second drug was added directly to the cell culture medium without wash-off of the first drug. […] Control cultures were maintained in normal growth medium without added drug. The number of viable cells was determined as described for the proliferation assay."}, "[7]": {"system": "PARP1 cleavage", "assay": "Western blot of PARP1 cleavage in REN cells", "type": "cell-based, human", "protocol": "as §1, §2\nLevels of PARP1, cleaved PARP1, AKT and phosphorylated AKT in REN cells treated for 24 hours with cisplatin (25, 50 and 100 μM) or pre-treated 2 hours with Compound (I) (10 nM) followed by wash-off and continued growth in normal medium±cisplatin (25, 50 and 100 μM), for an additional 24 hours were also determined by Western blot analysis and relative densitometry. Total AKT and Tubulin staining were used for normalization. PARP1 cleavage was analysed as it is an indicator of apoptotic cell death. As increased AKT activity has been implicated in the control of proliferation, apoptosis and cisplatin resistance (Pinton G., et al, PLoS One (2012) 7:e36856), AKT activation status following different treatments was also analysed."}, "[8]": {"system": "PARP1 cleavage", "assay": "Western blot of PARP1 cleavage in MET5A cells", "type": "cell-based", "settings": "10 nM 2 hours pre-treatment, cisplatin 25, 50, 100 μM", "protocol": "as §1, §2\nLevels of PARP1, cleaved PARP1, AKT and phosphorylated AKT in the MET5A cell cultures at 24 hours were also determined by Western blot analysis and relative densitometry."}}}
{"smiles": "Cc1noc(C)c1-c1c(/C(N)=N/O)c2ccccc2n1-c1ccc(O)cc1", "note": "[Compound (I)]", "values": [{"measurement": "inhibition of proliferation, MSTO-211H/ERβ cells", "setting": "[1]", "value": "sensitized these cells to Compound (I)"}, {"measurement": "AKT phosphorylation in MMP cells", "setting": "[2]", "value": "significantly reduced AKT phosphorylation both in the absence and in the presence of cisplatin"}, {"measurement": "AKT phosphorylation in REN cells", "setting": "[3]", "value": "significantly reduced AKT phosphorylation both in the absence and in the presence of cisplatin"}, {"measurement": "inhibition of proliferation, H2596 cells", "setting": "[4]", "value": "weak response"}, {"measurement": "toxicity assessed by changes of mice body weights", "setting": "[5]", "value": "not to be toxic"}, {"measurement": "anti-proliferative effect, pre-treatment then 20 μM cisplatin", "setting": "[6]; 10 nM 2 hours, wash-off, 20 μM cisplatin for additional 24 hours", "value": "as efficacious as 100 μM cisplatin alone"}, {"measurement": "inhibitory effect on cell growth and viability, pre-treatment then cisplatin/pemetrexed", "setting": "[6]; 10 nM 2 hours, wash-off, cisplatin 100 μM and pemetrexed 22 μM for additional 24 hours", "value": "strong synergistic inhibitory effect on cell growth and viability"}, {"measurement": "inhibitory effect on cell growth and viability, pre-treatment then cisplatin", "setting": "[6]; 10 nM 2 hours, wash-off, cisplatin 100 μM for additional 24 hours", "value": "strong synergistic inhibitory effect on cell growth and viability"}, {"measurement": "anti-proliferative effect, pre-treatment then cisplatin 20-100 μM", "setting": "[6]; 10 nM 2 hours, wash-off, cisplatin for additional 24 hours", "value": "most efficacious anti-proliferative effect was observed when Compound (I) pre-treatment was combined with the highest concentration of cisplatin (100 μM)"}, {"measurement": "enhancement of anti-proliferative effect of pemetrexed", "setting": "[6]; 10 nM 2 hours, wash-off, pemetrexed 5-22 μM for additional 24 hours", "value": "No enhanced anti-proliferative effect"}, {"measurement": "synergy when cisplatin is given first (reverse order)", "setting": "[6]; 10 nM Compound (I) added 2, 4, 8, 12 hours after start of 100 μM cisplatin, 24 hours", "value": "did not result in synergistic inhibition of cell growth and viability"}, {"measurement": "growth inhibition versus single agents, cisplatin given first", "setting": "[6]; 10 nM Compound (I) added after 100 μM cisplatin, 24 hours", "value": "greater growth inhibition than cells treated with only one of the agents"}, {"measurement": "inhibition of proliferation, REN cells", "setting": "[6]; 10 nM single agent, 24 and 48 hours", "value": "significantly (p≤0.05) inhibited proliferation"}, {"measurement": "growth inhibitory activity after brief exposure and wash-off", "setting": "[6]; 10 nM, 2 hours exposure, total incubation 24 hours", "value": "significantly (p≤0.05) increased growth inhibitory activity relative to 1 hour exposure and exposures longer than 8 hours"}, {"measurement": "enhancement of anti-proliferative effect of cisplatin, add-on experiment", "setting": "[6]; 100 μM cisplatin added 2, 4, 8, 12 hours after start of 10 nM Compound (I), 24 hours", "value": "greatest inhibitory effect obtained when adding cisplatin after 2 hours of Compound (I) pre-treatment"}, {"measurement": "concentration dependence of anti-proliferative effect after 2 hours pre-treatment", "setting": "[6]; 0.4, 2 and 10 nM, wash-off, 24-72 hours", "value": "largest anti-proliferative effect was observed with the highest Compound (I) concentration used"}, {"measurement": "duration of inhibitory effect on REN cell proliferation", "setting": "[6]; 2-hours pre-treatment with 0.4, 2 or 10 nM, wash-off, irrespective of concentration", "value": "at least 24 hours"}, {"measurement": "growth inhibition of REN cells", "setting": "[6]; 24 hours treatment, range 1-100 nM, versus untreated cells", "value": "significantly (p≤0.05) reduced cell growth and viability in a dose-dependent manner"}, {"measurement": "dose of highest efficacy for growth inhibition", "setting": "[6]; REN cells, 24 hours, range 1-100 nM tested", "value": 10, "unit": "nM"}, {"measurement": "isobologram analysis of combination with cisplatin", "setting": "[6]; analysis of Example 4(b) results (FIG. 4F)", "value": "synergistic effect"}, {"measurement": "appearance of cleaved PARP1, pre-treatment then cisplatin", "setting": "[7]; 10 nM 2 hours prior to cisplatin (25, 50, 100 μM) 24 hours", "value": "greatest effect on the appearance of cleaved PARP1"}, {"measurement": "PARP1 cleavage, single agent", "setting": "[7]; agent alone", "value": "neither cisplatin nor Compound (I) alone resulted in significant PARP1 cleavage"}, {"measurement": "percentage of cleaved PARP1 in MET5A cells", "setting": "[8]", "value": "reduced the percentage of cleaved PARP1 in cells exposed to all concentrations of cisplatin"}]}
